Experimental findings from ChEMBL document CHEMBL3632561, “Probing the structural requirements of non-electrophilic naphthalene-based Nrf2 activators” (Eur J Med Chem, 2015) are described below.

Activity calls are given as the source filed them. The rule behind the calls is not given here.

Holding throughout (format): cell-based
Assay [1] deals with T1, Nuclear factor erythroid 2-related factor 2 (Mus musculus) (UniProt Q60795).
T1 sequence (whole entry): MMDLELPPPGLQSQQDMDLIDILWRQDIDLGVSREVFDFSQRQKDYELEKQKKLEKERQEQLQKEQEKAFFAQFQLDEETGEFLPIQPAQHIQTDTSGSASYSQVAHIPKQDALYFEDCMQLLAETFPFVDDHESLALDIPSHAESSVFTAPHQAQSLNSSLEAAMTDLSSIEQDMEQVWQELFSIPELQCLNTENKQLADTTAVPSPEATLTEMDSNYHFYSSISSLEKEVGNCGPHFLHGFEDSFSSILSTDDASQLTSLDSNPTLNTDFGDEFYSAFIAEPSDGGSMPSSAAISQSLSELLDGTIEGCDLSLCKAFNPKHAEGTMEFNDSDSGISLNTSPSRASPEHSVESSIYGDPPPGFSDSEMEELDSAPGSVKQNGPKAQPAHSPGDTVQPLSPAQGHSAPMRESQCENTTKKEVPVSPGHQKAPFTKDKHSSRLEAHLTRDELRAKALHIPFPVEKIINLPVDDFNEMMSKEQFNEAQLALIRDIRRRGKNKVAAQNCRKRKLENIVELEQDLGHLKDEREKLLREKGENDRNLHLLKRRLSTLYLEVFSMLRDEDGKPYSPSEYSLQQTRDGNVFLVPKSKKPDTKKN
The experiment in a line: Activation of NRF2 in mouse MLE12 cells assessed as induction of HMOX1 expression at 10 uM incubated for 6 hrs by immunoblot assay.

In assay [2] the target is T1, Nuclear factor erythroid 2-related factor 2 (Mus musculus). The experiment in a line: Activation of NRF2 in mouse MLE12 cells assessed as increase in NRF2 level at 10 uM incubated for 6 hrs by immunoblot assay.
Assay [3] shares this target. The experiment in a line: Activation of NRF2 in mouse MLE12 cells assessed as induction of NQO1 expression at 10 uM incubated for 6 hrs by immunoblot assay.

With `CCOC(=O)CN(c1ccc(NS(=O)(=O)c2ccc(OC)cc2)c2ccccc12)S(=O)(=O)c1ccc(OC)cc1`, the result in assay [1] and in assay [2] was Active.
For the molecule `COc1ccc(S(=O)(=O)Nc2ccc(N(CC(=O)O)S(=O)(=O)c3ccc(OC)cc3)c3ccccc23)cc1`, the outcome in assay [3] and in assay [1] was inactive.
In the case of `COc1ccc(S(=O)(=O)N(CC(=O)O)c2ccc(N(CC(=O)O)S(=O)(=O)c3ccc(OC)cc3)c3ccccc23)cc1`, the outcome in assay [1] and in assay [2] was Active.
Regarding `COc1ccc(S(=O)(=O)Nc2ccc(NS(=O)(=O)c3ccc(OC)cc3)c3ccccc23)cc1`, the outcome in assay [1] and in assay [2] was Active.
